Here are results for two compounds from BindingDB's records for doi:10.1021/jm7014155 (Bryn Mawr College, 2008).

For this assay, the target named is Indoleamine 2,3-dioxygenase 1 (Homo sapiens, UniProt P14902). As to the kind of experiment: Enzyme Inhibition Assay. Particulars: pH 6.5; 37 °C. As to the method: The IC50 inhibition assays were performed in a 96-well microtiter plate format using purified recombinant IDO, which was added to the substrate, L-tryptophan (L-Trp), and the inhibitor. After the reaction, the product N-formylkynurenine was converted to kynurenine. The yellow color generated from reaction with kynurenine was measured at 490 nm using a microtiter plate reader. The data were analyzed using Graph Pad Prism 4 software (Graph Pad Software Inc.).
Indoleamine 2,3-dioxygenase 1, sequence (P14902 whole entry): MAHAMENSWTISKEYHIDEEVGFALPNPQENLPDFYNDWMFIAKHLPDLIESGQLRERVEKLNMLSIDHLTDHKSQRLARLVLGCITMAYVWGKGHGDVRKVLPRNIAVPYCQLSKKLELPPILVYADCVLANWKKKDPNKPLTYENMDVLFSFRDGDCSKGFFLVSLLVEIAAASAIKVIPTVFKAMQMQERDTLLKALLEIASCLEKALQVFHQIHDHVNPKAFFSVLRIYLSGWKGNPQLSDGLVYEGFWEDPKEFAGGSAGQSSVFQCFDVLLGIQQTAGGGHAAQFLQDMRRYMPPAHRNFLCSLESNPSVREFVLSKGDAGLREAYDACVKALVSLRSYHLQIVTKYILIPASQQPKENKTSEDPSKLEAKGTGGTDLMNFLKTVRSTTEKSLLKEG

The term IC50 denotes the concentration needed to halve the response being measured.

In the case of `O=C1CC(=O)c2ccccc2C1=O`, the midpoint of inhibition, the IC50, lay at 675 µM.

Regarding `CC1=CC(=O)c2ccccc2C1=O` [Vitamin K3], the IC50 is 1.1 µM.
